Reference: patent US20120164104A1, “Composition and Methods of Treating Viral Infections and Viral Induced Tumors” (Chimerix, Inc., priority 2009, published 2012)

Experiments:
tumor cell lines = test: Cell proliferation assay (MTS or SRB), panel of human tumor cell lines; format: cell-based; details: 22 tumor cell lines, read-out: IC50 values in the tumor cell lines (range over panel)
Experimental: The cell growth inhibitory activities of CMX001, Cidofovir, and a standard agent (varies depending on the tumor type of the cell lines) were evaluated in a panel of cell lines derived from multiple tumor types using a MTS or SRB based cell proliferation assay.
In vitro cell proliferation assays were performed using a 96-well plate based MTSassay (CellTiter 96° AqueousOne Solution Cell Proliferation Assay, Promega) or SRB (Sulforhodamine-B) assay (1-3). Briefly, cells were plated in 100 μl medium on day 0 in 96-well microtiter plates (Falcon #3072). […]
After incubation for 3 days at 37° C. in a humidified incubator, viable cells were measured either by MTS or SRB assay. For MTS assay, 20 μl of a 20:1 mixture of (3-(4,5-dimethylthiazol-2-yl)-5-(3-carboxymethoxyphenyl)-2-(4-sulfophenyl)-2H-tetrazolium, inner salt (MTS, 2 mg/ml) and an electron coupling reagent, phenazine methosulfate (PMS, 0.92 mg/ml in DPBS), was added to each well and incubated for 3 hours at 37° C. Absorbance was measured using a BioTek Synergy™ HT Multiple Detection microplate reader at 490 nm. For SRB assay, cells were fixed in situ with 50 μL of cold trichloroacetic acid (TCA, final concentration at 10% w/v) for 60 minutes. Cells were then washed 5 times with H2O and air-dried. […]
Raw data were acquired using a BioTek Synergy™ HT Multiple Detection microplate reader and imported into Microsoft Excel for analysis. […]

JC virus = test: Antiviral activity against JC virus in COS-7 cells (qPCR, 5 days); format: cell-based, JCV(Mad-4)
Experimental: In order to test the ability of CMX001 to inhibit JC virus, COS-7 cells were infected with JCV(Mad-4) at an estimated TCID50 of 0.2. After 2 h incubation at 37° C., supernatants were replaced with fresh medium without or with increasing amounts of CMX001 and incubated for 5 days. JC virus was quantified by qPCR after DNA extraction.

JCV Mad-4 = test: JCV VP1 late gene expression in COS-7 cells (immunofluorescence); format: cell-based; details: 7 d.p.i.
From the text: FIG. 16 illustrates the effect of increasing concentrations of CMX001 on expression of JCV proteins. Indirect immunofluorescence of JCV-infected COS-7 cells treated with indicated concentrations of CMX001, fixed 7 d.p.i. and stained with rabbit anti-VP1 serum (red) for visualization of the late capsid protein VP1 and with Höchst 33342 dye to show DNA (blue). The merged pictures are shown in the right panel.
Cells were fixed with 4% p-formaldehyde (PFA) in phosphate-buffered saline, pH6.8 (PBS) at room temperature for 20 min and permeabilized with 0.2% Triton X-100 in PBS at room temperature for 10 min. After washing twice with PBS at room temperature for 5 min, PFA was quenched with 0.5 M NH4Cl in PBS at room temperature for 7 min followed washing twice with PBS at room temperature for 5 min. Blocking of unspecific binding sites was done with 3% milk in PBS at 37° C. for 15 min. Primary antibody (rabbit anti-VP1 1:300 in 3% milk PBS) was incubated at 37° C. for 45-60 min. Cells were washed twice with PBS on a shaker at room temperature for 5 min. Secondary antibody (chicken anti-rabbit Cy3 1:2000) and 5 μg/ml Höchst 33342 dye to stain DNA was given to the cells then incubated at 37° C. for 45-60 min. Cells were washed twice with PBS as before. Coverslips were mounted in NPropylgallat. […]

BKV(Dunlop) = test: Intracellular BKV load per cell in RPTECs (qPCR); format: cell-based; details: CMX001 0.31 μM
Experimental: FIG. 3 illustrates the influence of CMX001 0.31 μM on BKV genome replication. For Figure, CMX001-treated and untreated BKV-infected RPTECs were harvested at indicated timepoints and intracellular BKV DNA load per cell was measured by qPCR.
To investigate whether the BKV genome replication was affected by CMX001, intracellular BKV load at 24-72 h p.i. by qPCR was measured. The intracellular BKV load was normalized to the cell number using the aspartoacylase (ACY) gene as described (See Bernhoff et al., 2008; Randhawa, et al., Quantitation of DNA of polyomaviruses BK and JC in human kidneys. J Infect Dis., 192, 504-509 (2005)). Compared to untreated RPTECs, CMX001 0.31 μM reduced the intracellular BKV load by 94% at 48 h and 63% at 72 h p.i. (FIG. 3). Then, a significant inhibitory effect of CMX001 on intracellular BKV genome replication, which is the second step of the BKV lifecycle may be identified. This step is known to require LTag expression which also increases viral late gene expression by two mechanisms: 1. increasing the DNA templates for late gene transcription and 2. by activating transcription from the late promoter (Cole, C. N., Polyomavirinae: The Viruses and Their Replication. In Fields Virology, Third edn, pp. 1997-2043. Edited by B. N. Fields, D. M. Knipe & P. H. Howley. New York: Lippincott-Raven (1996).)

[1] = JC polyomavirus, 120 h, JCV(Mad-4), 5 days

CCCCCCCCCCCCCCCCOCCCOP(=O)(O)CO[C@H](CO)Cn1ccc(N)nc1=O [CMX001]
IC50 (tumor cell lines): 6600 to 100000 nM | EC50 (JC virus; [1]): 150 nM | EC90 (JC virus; [1]): 600 nM | activity against JC virus (JC virus; in words): active | JCV VP1 signal by immunofluorescence (JCV Mad-4; CMX001 1.25 μM): significant reduction | JCV VP1 positive cells by immunofluorescence (JCV Mad-4; CMX001 5 μM): essentially no VP1 positive cells could be observed | reduction of intracellular BKV load (BKV(Dunlop); 48 h p.i.): 94% | reduction of intracellular BKV load (BKV(Dunlop); 72 h p.i.): 63%
